Measured values as given in the supplement of paper PMC10307832.

How the values were obtained:
Assay in all cases: relative viability (nuclei count vs DMSO), 5 days (fraction); higher = more cells survive
FH535 + Luminespib = compound: CC1=C(C=CC(=C1)[N+](=O)[O-])NS(=O)(=O)C2=C(C=CC(=C2)Cl)Cl [FH535] + CCNC(=O)c1noc(-c2cc(C(C)C)c(O)cc2O)c1-c1ccc(CN2CCOCC2)cc1 [Luminespib] (partner 0.01 µM)
In short: (§1)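 Relative viability is defined as nuclei in treated wells over nuclei in vehicle wells. Duplicate plates were run and medians reported. Lung cancer cell lines in 1536-well plates were dosed by pin tool one day after seeding, with one drug or with a fixed anchor-drug dose plus five library-drug doses (not always all listed) in √10 steps, and nuclei were counted after 5 days.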

FH535 + Foretinib = compound: CC1=C(C=CC(=C1)[N+](=O)[O-])NS(=O)(=O)C2=C(C=CC(=C2)Cl)Cl [FH535] + COc1cc2c(Oc3ccc(NC(=O)C4(C(=O)Nc5ccc(F)cc5)CC4)cc3F)ccnc2cc1OCCCN1CCOCC1 [Foretinib] (partner 0.25 µM)
In short: as §1

FH535 + OSI-027 = compound: CC1=C(C=CC(=C1)[N+](=O)[O-])NS(=O)(=O)C2=C(C=CC(=C2)Cl)Cl [FH535] + COc1cccc2cc(-c3nc([C@H]4CC[C@H](C(=O)O)CC4)n4ncnc(N)c34)[nH]c12 [OSI-027] (partner 0.5 µM)
In short: as §1

FH535 + Alpelisib = compound: CC1=C(C=CC(=C1)[N+](=O)[O-])NS(=O)(=O)C2=C(C=CC(=C2)Cl)Cl [FH535] + Cc1nc(NC(=O)N2CCC[C@H]2C(N)=O)sc1-c1ccnc(C(C)(C)C(F)(F)F)c1 [Alpelisib] (partner 2 µM)
In short: as §1

FH535 + Decitabine = compound: CC1=C(C=CC(=C1)[N+](=O)[O-])NS(=O)(=O)C2=C(C=CC(=C2)Cl)Cl [FH535] + Nc1ncn([C@H]2C[C@H](O)[C@@H](CO)O2)c(=O)n1 [Decitabine] (partner 2 µM)
In short: as §1

| Cell Line | relative viability (FH535 + Luminespib; first compound 0.04 µM) | relative viability (FH535 + Luminespib; first compound 0.1265 µM) | relative viability (FH535 + Luminespib; first compound 0.4 µM) | relative viability (FH535 + Luminespib; first compound 1.265 µM) | relative viability (FH535 + Foretinib; first compound 0.04 µM) | relative viability (FH535 + Foretinib; first compound 0.1265 µM) | relative viability (FH535 + Foretinib; first compound 0.4 µM) | relative viability (FH535 + Foretinib; first compound 1.265 µM) | relative viability (FH535 + OSI-027; first compound 0.04 µM) | relative viability (FH535 + OSI-027; first compound 0.1265 µM) | relative viability (FH535 + OSI-027; first compound 0.4 µM) | relative viability (FH535 + OSI-027; first compound 1.265 µM) | relative viability (FH535 + Alpelisib; first compound 0.04 µM) | relative viability (FH535 + Alpelisib; first compound 0.1265 µM) | relative viability (FH535 + Alpelisib; first compound 0.4 µM) | relative viability (FH535 + Alpelisib; first compound 1.265 µM) | relative viability (FH535 + Decitabine; first compound 0.04 µM) | relative viability (FH535 + Decitabine; first compound 0.1265 µM) | relative viability (FH535 + Decitabine; first compound 0.4 µM) | relative viability (FH535 + Decitabine; first compound 1.265 µM) |
| --- | --- | --- | --- | --- | --- | --- | --- | --- | --- | --- | --- | --- | --- | --- | --- | --- | --- | --- | --- | --- |
| NCI-H2170 | 0.726 | 0.606 | 0.661 | 0.426 | 1.06 | 0.96 | 0.988 | 0.891 | 0.72 | 0.779 | 0.619 | 0.554 | 0.853 | 0.965 | 0.784 | 0.769 | 0.433 | 0.473 | 0.443 | 0.447 |
| NCI-H2023 | 0.838 | 0.704 | 0.681 | 0.64 | 0.876 | 0.995 | 0.699 | 0.743 | 0.362 | 0.406 | 0.385 | 0.331 | 0.659 | 0.629 | 0.686 | 0.604 | 0.218 | 0.223 | 0.236 | 0.213 |
| NCI-H1395 | 0.738 | 0.576 | 0.784 | 0.581 | 0.952 | 0.967 | 0.868 | 0.831 | 0.581 | 0.613 | 0.61 | 0.476 | 0.847 | 1.09 | 1.1 | 0.84 | 0.632 | 0.685 | 0.702 | 0.653 |
| NCI-H2087 | 0.178 | 0.141 | 0.147 | 0.191 | 1.05 | 1.07 | 0.916 | 0.766 | 0.522 | 0.454 | 0.478 | 0.421 | 1.11 | 1.04 | 0.887 | 0.613 | 0.26 | 0.225 | 0.194 | 0.18 |
| PC-14 | 0.126 | 0.168 | 0.152 | 0.117 | 1.03 | 1.06 | 0.982 | 1.02 | 0.83 | 0.9 | 0.896 | 0.783 | 0.88 | 0.967 | 0.94 | 0.925 | 0.218 | 0.231 | 0.242 | 0.223 |
| NCI-H1793 | 0.168 | 0.229 | 0.19 | 0.143 | 0.347 | 0.775 | 0.798 | 0.458 | 0.295 | 0.225 | 0.306 | 0.244 | 0.597 | 0.721 | 0.618 | 0.541 | 0.449 | 0.571 | 0.487 | 0.422 |
| LC-2-ad | 0.967 | 1.16 | 1.03 | 0.755 | 0.807 | 0.981 | 0.872 | 0.853 | 0.66 | 0.799 | 0.796 | 0.577 | 0.489 | 0.963 | 0.898 | 0.618 | 0.773 | 0.892 | 0.764 | 0.713 |
| LOU-NH91 | 0.333 | 0.326 | 0.369 | 0.288 | 0.99 | 0.952 | 0.91 | 0.474 | 0.708 | 0.815 | 0.557 | 0.397 | 0.714 | 0.793 | 0.679 | 0.409 | 0.759 | 0.823 | 0.788 | 0.64 |
| NCI-H1734 | – | 0.207 | 0.215 | 0.176 | – | 0.91 | 0.886 | 0.773 | – | 0.633 | 0.55 | 0.503 | 0.651 | 0.715 | 0.693 | 0.617 | 0.501 | 0.501 | 0.56 | 0.471 |
| NCI-H596 | 1.07 | 1.11 | 0.85 | 0.992 | 0.833 | 0.899 | 0.852 | 0.819 | 0.697 | 0.551 | 0.55 | 0.652 | 0.527 | 0.487 | 0.481 | 0.487 | 0.983 | 1.06 | 1 | 0.976 |
| NCI-H23 | – | 0.207 | 0.199 | 0.225 | 0.469 | 1.07 | 0.953 | 0.636 | 0.408 | 0.471 | 0.642 | 0.546 | – | 0.761 | 0.636 | 0.631 | 0.299 | 0.31 | 0.347 | 0.318 |
| NCI-H647 | 0.156 | 0.167 | 0.125 | 0.23 | 1.14 | 1.22 | 1.13 | 1.14 | 0.486 | 0.809 | 0.673 | 0.543 | 1.18 | 1.41 | 1.14 | 0.935 | 0.311 | 0.362 | 0.364 | 0.334 |
| NCI-H1755 | 0.394 | 0.445 | 0.38 | 0.418 | 0.862 | 0.894 | 0.874 | 0.854 | 0.552 | 0.675 | 0.683 | 0.629 | 0.941 | 0.897 | 0.853 | 0.867 | 0.667 | 0.725 | 0.679 | 0.699 |
| SW 1573 | 0.237 | 0.346 | 0.193 | 0.638 | 0.784 | 0.944 | 1.01 | 0.89 | 0.601 | 0.613 | 0.67 | 0.445 | 0.726 | 0.693 | 0.623 | 0.689 | 0.464 | 0.515 | 0.52 | 0.411 |
| NCI-H650 | 0.639 | 0.732 | 0.796 | 0.619 | 0.927 | 1.05 | 1.01 | 0.788 | 0.465 | 0.515 | 0.433 | 0.344 | 0.975 | 1.06 | 1.12 | 0.774 | 0.315 | 0.359 | 0.333 | 0.32 |
| UMC-11 | 1.12 | 1.03 | 1.02 | 0.763 | 0.967 | 1.13 | 1.03 | 0.88 | 0.413 | 0.561 | 0.431 | 0.416 | 0.939 | 1.13 | 0.96 | 0.857 | 0.609 | 0.529 | 0.594 | 0.576 |
